Reference: PubChem BioAssay AID1963969 (Molecular Pharmacology Branch, DTP, NCI, 2024)

Test system: 817829-284-R-J1-PDC multi-cell spheroid viability
Assay: Anticancer human tumor 817829-284-R-J1-PDC patient-derived colon adenocarcinoma cell line growth inhibition [PI3K]
Details: for IC50: curve of first compound; for viability, T/C: stronger effect = lower value
Procedure, shortened: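 Tumor cells grown as multi-cell spheroids with HUVEC endothelial cells and MSC fibroblast-like stroma were treated with targeted agents combined with inavolisib, alpelisib, duvelisib or copanlisib. Doses fell in half-log steps from near clinical Cmax, else from 10 microM. Viability was measured.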

[1] = second compound 0.0316 µM, first compound 0.00316 µM
[2] = second compound 0.0316 µM, first compound 0.01 µM
[3] = second compound 0.0316 µM, first compound 0.0316 µM
[4] = second compound 0.0316 µM, first compound 0.1 µM
[5] = second compound 0.1 µM, first compound 0.00316 µM
[6] = second compound 0.1 µM, first compound 0.01 µM
[7] = second compound 0.1 µM, first compound 0.0316 µM
[8] = second compound 0.1 µM, first compound 0.1 µM
[9] = second compound 0.316 µM, first compound 0.00316 µM
[10] = second compound 0.316 µM, first compound 0.01 µM
[11] = second compound 0.316 µM, first compound 0.0316 µM
[12] = second compound 0.316 µM, first compound 0.1 µM
[13] = second compound 1 µM, first compound 0.00316 µM
[14] = second compound 1 µM, first compound 0.01 µM
[15] = second compound 1 µM, first compound 0.0316 µM
[16] = second compound 1 µM, first compound 0.1 µM
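Note: spheroids exposed to agents for seven days before readout.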
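Throughout, for viability, T/C: percent of vehicle DMSO control viability which is 100%.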

SMILES: CCN1CCN(Cc2ccc(Nc3ncc(F)c(-c4cc(F)c5nc(C)n(C(C)C)c5c4)n3)nc2)CC1 + Cc1nc(NC(=O)N2CCCC2C(N)=O)sc1-c1ccnc(C(C)(C)C(F)(F)F)c1
- IC50 (second compound 0.0316 µM): 0.638 µM
- IC50 (second compound 0.1 µM): 0.316 µM
- IC50 (second compound 0.316 µM): 0.325 µM
- IC50 (second compound 1 µM): 0.122 µM
- IC50 (second compound 3.16 µM): 0.0569 µM
- IC50 (second compound 10 µM): 0.00696 µM
- viability, T/C [1]: 75.4%
- viability, T/C [2]: 55.4%
- viability, T/C [3]: 90.8%
- viability, T/C [4]: 52.5%
- viability, T/C (second compound 0.0316 µM, first compound 0.316 µM): 66.5%
- viability, T/C (second compound 0.0316 µM, first compound 1 µM): 42.1%
- viability, T/C [5]: 91.5%
- viability, T/C [6]: 70.8%
- viability, T/C [7]: 112%
- viability, T/C [8]: 46.7%
- viability, T/C (second compound 0.1 µM, first compound 0.316 µM): 64.4%
- viability, T/C (second compound 0.1 µM, first compound 1 µM): 59.1%
- viability, T/C [9]: 76.4%
- viability, T/C [10]: 53.1%
- viability, T/C [11]: 74.9%
- viability, T/C [12]: 49.9%
- viability, T/C (second compound 0.316 µM, first compound 0.316 µM): 48.2%
- viability, T/C (second compound 0.316 µM, first compound 1 µM): 47.1%
- viability, T/C [13]: 76%
- viability, T/C [14]: 63.5%
- viability, T/C [15]: 56.5%
- viability, T/C [16]: 47.8%
- viability, T/C (second compound 1 µM, first compound 0.316 µM): 51.5%
- viability, T/C (second compound 1 µM, first compound 1 µM): 43.7%
- viability, T/C (second compound 3.16 µM, first compound 0.00316 µM): 53.1%
- viability, T/C (second compound 3.16 µM, first compound 0.01 µM): 63.5%
- viability, T/C (second compound 3.16 µM, first compound 0.0316 µM): 61%
- viability, T/C (second compound 3.16 µM, first compound 0.1 µM): 39.4%
- viability, T/C (second compound 3.16 µM, first compound 0.316 µM): 41.6%
- viability, T/C (second compound 3.16 µM, first compound 1 µM): 42.6%
- viability, T/C (second compound 10 µM, first compound 0.00316 µM): 66.1%
- viability, T/C (second compound 10 µM, first compound 0.01 µM): 35.1%
- viability, T/C (second compound 10 µM, first compound 0.0316 µM): 51.9%
- viability, T/C (second compound 10 µM, first compound 0.1 µM): 38.4%
- viability, T/C (second compound 10 µM, first compound 0.316 µM): 46.7%
- viability, T/C (second compound 10 µM, first compound 1 µM): 41%

SMILES: CC(=O)c1c(C)c2cnc(Nc3ccc(N4CCNCC4)cn3)nc2n(C2CCCC2)c1=O + COc1c(OCCCN2CCOCC2)ccc2c3n(c(=NC(=O)c4cnc(N)nc4)nc12)CCN3
- IC50 (second compound 0.00316 µM): 0.0523 µM
- IC50 (second compound 0.01 µM): > 0.1 µM
- IC50 (second compound 0.0316 µM): 0.0123 µM
- IC50 (second compound 0.1 µM): < 0.000316 µM
- IC50 (second compound 0.316 µM): < 0.000316 µM
- IC50 (second compound 1 µM): < 0.000316 µM
- viability, T/C (second compound 0.00316 µM, first compound 0.000316 µM): 79.1%
- viability, T/C (second compound 0.00316 µM, first compound 0.001 µM): 85.2%
- viability, T/C (second compound 0.00316 µM, first compound 0.00316 µM): 66.7%
- viability, T/C (second compound 0.00316 µM, first compound 0.01 µM): 74.5%
- viability, T/C (second compound 0.00316 µM, first compound 0.0316 µM): 66.6%
- viability, T/C (second compound 0.00316 µM, first compound 0.1 µM): 30.2%
- viability, T/C (second compound 0.01 µM, first compound 0.000316 µM): 91.1%
- viability, T/C (second compound 0.01 µM, first compound 0.001 µM): 60%
- viability, T/C (second compound 0.01 µM, first compound 0.00316 µM): 56%
- viability, T/C (second compound 0.01 µM, first compound 0.01 µM): 55.7%
- viability, T/C (second compound 0.01 µM, first compound 0.0316 µM): 75.7%
- viability, T/C (second compound 0.01 µM, first compound 0.1 µM): 34%
- viability, T/C (second compound 0.0316 µM, first compound 0.000316 µM): 65.2%
- viability, T/C (second compound 0.0316 µM, first compound 0.001 µM): 40.6%
- viability, T/C [1]: 48.3%
- viability, T/C [2]: 60.6%
- viability, T/C [3]: 33.5%
- viability, T/C [4]: 24.3%
- viability, T/C (second compound 0.1 µM, first compound 0.000316 µM): 29.2%
- viability, T/C (second compound 0.1 µM, first compound 0.001 µM): 30.3%
- viability, T/C [5]: 34.6%
- viability, T/C [6]: 21.1%
- viability, T/C [7]: 22.7%
- viability, T/C [8]: 25.3%
- viability, T/C (second compound 0.316 µM, first compound 0.000316 µM): 16.9%
- viability, T/C (second compound 0.316 µM, first compound 0.001 µM): 22.2%
- viability, T/C [9]: 20.8%
- viability, T/C [10]: 17.9%
- viability, T/C [11]: 18.2%
- viability, T/C [12]: 16.2%
- viability, T/C (second compound 1 µM, first compound 0.000316 µM): 11.2%
- viability, T/C (second compound 1 µM, first compound 0.001 µM): 10.2%
- viability, T/C [13]: 8.91%
- viability, T/C [14]: 12.2%
- viability, T/C [15]: 11.6%
- viability, T/C [16]: 7.24%
